# Assay results from patent US20100216823A1 (Pfizer Inc., priority 2007, published 2010).
# Legend:
# Assay type in all cases: biochemical
# PDE7B = target: T1, PDE7B (Homo sapiens, UniProt Q9NP56); test: PDE7B [3H]-cAMP scintillation proximity assay (SPA) enzyme inhibition; conditions: for Ki: full length PDE7B in cell lysate, ~25 nM cAMP, Ki from IC50 by Cheng-Prussof equation; for 1C/7B selectivity: ratio PDE1C Ki / PDE7B Ki
# T1 construct: cell lysate containing full length PDE7A, PDE7B and PDE1C enzyme; made in house; host or cells: cell lysate
# Protocol: (§1) The ability of the compounds of formula (I) to inhibit PDE7 and PDE1 may be measured using the following assay protocol.
# (§2) PDE7A, PDE7B and PDE1C enzymes catalyse the hydrolysis of 3′,5′-cyclic adenosine monophosphate (cAMP) to the 5′ adenosine monophosphate, 5′AMP. In a multiwell plate, PDE enzyme, [^3H]-cAMP and the test compounds, are incubated at room temperature. The incubation is terminated by addition of commercially available yttrium silicate scintillation proximity assay (SPA) beads containing zinc sulphate. The yttrium silicate beads preferentially bind linear nucleotides, thus the product of the enzyme reaction, [^3H]-5′AMP binds to the bead to produce a light signal, which is detected by a scintillation counter. The amount of signal produced directly correlates with the amount of product formed, and thus the activity of the enzyme. The maximum signal is obtained where enzyme and substrate are incubated alone. The background signal is measured from wells either containing no enzyme, or from wells containing a supra-maximal concentration of a known PDE 7A/7B/1C inhibitor. Each purified batch of enzyme is quality controlled and its Km, Vmax and specific activity determined from kinetic studies before use in compound inhibition studies. The inhibition of the enzyme, by a test compound, is calculated relative to the maximum and background responses.
# (§3) The compound of Example 75 of WO 02/074754, 5′-carboxypropoxy-8′-chloro-spiro[cyclohexane-1-4′-(3′,4′-dihydro)quinazolin]-2′(1′H)-one (referred to as compound A hereafter) was used as a standard for PDE7A and PDE7B. The compound of Example 32 of WO 02/074754, 4-(8′-chloro-2′-oxo-2′,3′-dihydro-1′H-spiro[cyclohexane-1,4′-quinazolin]-6′-yl)benzoic acid (referred to as compound B hereafter) was used as a standard for PDE1C.
# (§4) The optimisation of this assay has been carried out using cell lysate containing full length PDE7A, PDE7B and PDE1C enzyme. The concentration of the enzyme in this cell lysate sample is unknown, so the specific activity of the cell lysate is used as a measure to ensure that the same activity per well is used despite any batch-to-batch variation of concentration/activity.
# (§5) PDE7A/7B/1C stock enzyme was prepared and kept at −20° C. in appropriately sized aliquots to reduce the number of freeze/thaw cycles. […] PDE7A is diluted to 1/8000, PDE7B to 1/10000 and PDE1C to 1/200000.
# (§6) The final assay [cAMP] of ˜25 nM is required, so ˜50 nM [^3H]-cAMP was prepared. 9 ml of substrate solution was prepared by mixing 10.8 μl of [^3H]-cAMP (available from Amersham) with 8975 μl of assay buffer.
# (§7) 1 μl test compound was transferred into a suitable multi-well assay plate immediately prior to reagent assay addition, 14 μl enzyme solution was then added to the assay plate, followed by 15 μl substrate solution (ie: final assay volume 30 μl, with a final screening compound concentration of 1 μM for PDE7A and PDE7B and 10 μM for PDE1C). The plate was then sealed using a plate sealer and incubated at room temperature for 45 min on the plate shaker.
# (§8) 30 μl Yttrium Silicate PDE4 SPA beads were then added, ensuring constant stirring of the beads to give even distribution in the assay plate. The plate was then sealed using a plate sealer and incubated at room temperature for 30 mins on the plate shaker. The beads were then allowed to settle for 30 mins, before spinning the plates for 1 min at 200 g.
# (§9) The plates were then read on a suitable radioactive counter, for example NXT-TopCount™ (available from Perkin Elmer) using the relevant protocol (30 second read time per well).
# (§10) The data was fitted to a sigmoid curve using a least squares algorithm.
# (§11) The IC50 value was converted to a value using the Cheng-Prussof equation: […]
# PDE7A = target: T2, PDE7A (Homo sapiens, UniProt Q13946); test: PDE7A [3H]-cAMP scintillation proximity assay (SPA) enzyme inhibition; conditions: for Ki: full length PDE7A in cell lysate, ~25 nM cAMP, Ki from IC50 by Cheng-Prussof equation; for 1C/7A selectivity: ratio PDE1C Ki / PDE7A Ki
# T2 construct: cell lysate containing full length PDE7A, PDE7B and PDE1C enzyme; made in house; host or cells: cell lysate
# Protocol: as §1, §2, §3, §4, §5, §6, §7, §8, §9, §10, §11
# PDE1C = target: T3, PDE1C (Homo sapiens, UniProt Q14123); test: PDE1C [3H]-cAMP scintillation proximity assay (SPA) enzyme inhibition; conditions: full length PDE1C in cell lysate; 75 nM cAMP; Ki from IC50 by Cheng-Prussof equation
# T3 construct: cell lysate containing full length PDE7A, PDE7B and PDE1C enzyme; made in house; host or cells: cell lysate
# Protocol: as §1, §2, §3, §4, §5
# The final assay [cAMP]=75 nM therefore the required solution [cAMP]=0.15 μM (1/2 dilution in assay plate)
# as §7, §8, §9, §10, §11
# T1 sequence (Q9NP56 whole entry): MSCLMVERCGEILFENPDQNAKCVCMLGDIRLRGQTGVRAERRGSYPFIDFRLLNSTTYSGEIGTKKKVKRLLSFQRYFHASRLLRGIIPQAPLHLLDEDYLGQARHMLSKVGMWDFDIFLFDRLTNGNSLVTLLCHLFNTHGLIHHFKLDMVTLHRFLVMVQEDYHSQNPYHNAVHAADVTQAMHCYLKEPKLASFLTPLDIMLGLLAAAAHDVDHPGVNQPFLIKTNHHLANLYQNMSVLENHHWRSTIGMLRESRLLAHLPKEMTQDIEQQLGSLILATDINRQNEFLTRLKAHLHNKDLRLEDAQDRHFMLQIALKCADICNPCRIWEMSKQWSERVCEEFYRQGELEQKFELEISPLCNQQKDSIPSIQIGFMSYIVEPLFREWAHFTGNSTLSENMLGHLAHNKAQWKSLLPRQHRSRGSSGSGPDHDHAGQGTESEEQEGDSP
# T3 sequence (Q14123 whole entry): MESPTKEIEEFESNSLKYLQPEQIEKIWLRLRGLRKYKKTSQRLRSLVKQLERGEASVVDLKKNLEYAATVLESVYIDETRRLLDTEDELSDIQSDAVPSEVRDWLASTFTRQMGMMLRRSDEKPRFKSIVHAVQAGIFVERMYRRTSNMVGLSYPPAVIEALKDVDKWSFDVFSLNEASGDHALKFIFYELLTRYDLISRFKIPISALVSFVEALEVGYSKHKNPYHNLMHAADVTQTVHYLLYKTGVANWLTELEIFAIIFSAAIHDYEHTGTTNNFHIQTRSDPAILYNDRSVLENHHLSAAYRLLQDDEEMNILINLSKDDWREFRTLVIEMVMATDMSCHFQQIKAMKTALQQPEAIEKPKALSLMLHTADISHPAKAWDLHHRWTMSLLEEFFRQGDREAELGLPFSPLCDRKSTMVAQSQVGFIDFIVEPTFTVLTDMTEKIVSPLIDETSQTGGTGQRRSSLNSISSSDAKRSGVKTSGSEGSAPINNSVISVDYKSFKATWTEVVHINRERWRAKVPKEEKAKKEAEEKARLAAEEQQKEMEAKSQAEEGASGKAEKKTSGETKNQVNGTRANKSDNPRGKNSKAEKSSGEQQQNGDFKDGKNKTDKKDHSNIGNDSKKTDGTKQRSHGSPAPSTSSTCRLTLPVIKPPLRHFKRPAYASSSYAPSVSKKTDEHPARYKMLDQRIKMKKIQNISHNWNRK
# T2 sequence (Q13946 whole entry): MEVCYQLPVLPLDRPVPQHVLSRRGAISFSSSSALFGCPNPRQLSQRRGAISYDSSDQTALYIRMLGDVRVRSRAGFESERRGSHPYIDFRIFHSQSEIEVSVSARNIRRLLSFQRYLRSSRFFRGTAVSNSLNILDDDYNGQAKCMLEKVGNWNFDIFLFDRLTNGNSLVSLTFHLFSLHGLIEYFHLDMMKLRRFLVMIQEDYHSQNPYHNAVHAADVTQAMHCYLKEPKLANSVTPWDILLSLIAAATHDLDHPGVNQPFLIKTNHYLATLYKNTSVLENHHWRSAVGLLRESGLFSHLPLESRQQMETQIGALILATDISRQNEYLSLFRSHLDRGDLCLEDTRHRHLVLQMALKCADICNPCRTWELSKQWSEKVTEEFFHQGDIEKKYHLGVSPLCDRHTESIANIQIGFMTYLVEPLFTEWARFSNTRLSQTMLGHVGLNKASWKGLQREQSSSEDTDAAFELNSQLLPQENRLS
SMILES,Ki (PDE7B) [nM],1C/7B selectivity (PDE7B),Ki (PDE7A) [nM],1C/7A selectivity (PDE7A),Ki (PDE1C) [nM]
O=C1Nc2c(Cl)ccc(-c3ccc(F)c(-c4nn[nH]n4)c3)c2C2(CCCCC2)N1 [Example 4],45,35,7.5,207,1560
"O=C1Nc2c(Cl)ccc(OCc3ccc(C(=O)O)o3)c2C2(CCCCC2)N1 [Compound C, 5-{[(8′-chloro-2′-oxo-2′,3′-dihydro-1′H-spiro[cyclohexane-1,4′-quinazolin]-5′-yl)oxy]methyl}-2-furoic acid, reference compound]",33,9.2,6.7,45,305
"O=C1Nc2c(F)ccc(Oc3c(Cl)cccc3C(=O)O)c2C2(CCCCC2)N1 [Example 9, 3-chloro-2-{(8′-fluoro-2′-oxo-2′,3′-dihydro-1′H-spiro[cyclohexane-1,4′-quinazolin]-5′-yl)oxy}benzoic acid]",41,>92,32,>116,> 3750
O=C1Nc2c(Cl)ccc(-c3cccc(C(=O)O)c3)c2C2(CCCCC2)N1 [Example 2],12,>477,3.1,>1810,> 5630
"O=C1Nc2c(Cl)ccc(Oc3c(F)cccc3C(=O)O)c2C2(CCCC2)N1 [Example 7, 2-{(8′-chloro-2′-oxo-2′,3′-dihydro-1′H-spiro[cyclopentane-1,4′-quinazolin]-5′-oxy}-3-fluorobenzoic acid]",21,107,11,201,2260
"O=C(O)COc1ccccc1Oc1ccc(Cl)c2c1C1(CCCCC1)NC(=O)N2 [Example 23, {2-[(8′-chloro-2′-oxo-2′,3′-dihydro-1′H-spiro[cyclohexane-1,4′-quinazolin]-5′-yl)oxy]phenoxy}acetic acid]",1.9,31,0.48,121,58
"O=C1Nc2c(Cl)ccc(Oc3c(Cl)cccc3C(=O)O)c2C2(CCCCC2)N1 [Example 8, 3-chloro-2-{(8′-chloro-2′-oxo-2′,3′-dihydro-1′H-spiro[cyclohexane-1,4′-quinazolin]-5′-yl)oxy}benzoic acid]",9.4,192,4.8,380,1810
"O=C1Nc2c(Cl)ccc(-c3ccc(C(=O)O)c(F)c3)c2C2(CCCCC2)N1 [Example 3, 5-[(8′-chloro-2′-oxo-2′,3′-dihydro-1′H-spiro[cyclohexane-1,4′-quinazolin]-4′-yl)]-2-fluorobenzoic acid]",101,24,11,218,2430

# Now from value to molecule:
Ki (PDE7B) [nM],1C/7B selectivity (PDE7B),Ki (PDE7A) [nM],1C/7A selectivity (PDE7A),Ki (PDE1C) [nM],SMILES
39,0.04,1.5,0.97,1.4,"O=C1Nc2c(Cl)cc(-c3ccc(C(=O)O)cc3)cc2C2(CCCCC2)N1 [Compound B, 4-(8′-chloro-2′-oxo-2′,3′-dihydro-1′H-spiro[cyclohexane-1,4′-quinazolin]-6′-yl)benzoic acid, reference compound]"
0.7,123,0.3,301,89,O=C1Nc2c(F)ccc(Oc3c(F)cccc3-c3nn[nH]n3)c2C2(CCCCC2)N1 [Example 12]
–,–,< 0.05,>282,–,"O=C(O)Cc1cccc(F)c1Oc1ccc(Cl)c2c1C1(CCCCC1)NC(=O)N2 [Example 22, {2-[(8′-chloro-2′-oxo-2′,3′-dihydro-1′H-spiro[cyclohexane-1,4′-quinazolin]-5′-yl)oxy]-3-fluorophenyl}acetic acid]"
4.4,165,2.4,301,723,"O=C1Nc2c(Cl)ccc(Oc3c(F)cccc3-c3nn[nH]n3)c2C2(CCCC2)N1 [Example 14, 8′-chloro-5′-[6-fluoro-2-(1H-tetrazol-5-yl)phenoxy]-1′H-spiro[cyclopentane-1,4′-quinazolin]-2′(3′H)-one]"
1.5,115,0.94,183,172,"O=C1Nc2c(Cl)ccc(Oc3c(F)cccc3-c3n[nH]c(=O)[nH]3)c2C2(CCCCC2)N1 [Example 19, 8′-chloro-5′-[2-fluoro-6-(5-oxo-4,5-dihydro-1H-1,2,4-triazol-3-yl)phenoxy]-1′H-spiro[cyclohexane-1,4′-quinazolin]-2′(3′H)-one]"
3.4,172,1.7,336,584,"O=C1Nc2c(Cl)ccc(Oc3c(F)cccc3C(=O)O)c2C2(CCCCC2)N1 [Example 6, 2-{(8′-chloro-2′-oxo-2′,3′-dihydro-1′H-spiro[cyclohexane-1,4′-quinazolin]-5′-yl)oxy}-3-fluorobenzoic acid]"
9.8,79,2.3,345,778,"O=C1Nc2c(Cl)ccc(Oc3ccccc3-c3nn[nH]n3)c2C2(CCCC2)N1 [Example 16, 8′-chloro-5′-[2-(1H-tetrazol-5-yl)phenoxy]-1′H-spiro[cyclopentane-1,4′-quinazolin]-2′(3′H)-one]"
7,94,2.3,290,657,"CS(=O)(=O)NC(=O)c1cccc(F)c1Oc1ccc(Cl)c2c1C1(CCCCC1)NC(=O)N2 [Example 20, 2-[(8′-chloro-2′-oxo-2′,3′-dihydro-1′H-spiro[cyclohexane-1,4′-quinazolin]-5′-yl)oxy]-3-fluoro-N-(methylsulfonyl)benzamide]"
1,70,< 0.2,>307,70,"O=C1Nc2c(Cl)ccc(Oc3ccc(F)cc3-c3nn[nH]n3)c2C2(CCCCC2)N1 [Example 11, 8′-chloro-5′-[4-fluoro-2-(1H-tetrazol-5-yl)phenoxy]-1′H-spiro[cyclohexane-1,4′-quinazolin]-2′(3′H)-one]"
0.4,186,0.1,743,73,"O=C1Nc2c(Cl)ccc(Oc3c(F)cccc3-c3nn[nH]n3)c2C2(CCCCC2)N1 [Example 10, 8′-chloro-5′-[2-fluoro-6-(2H-tetrazol-5-yl)phenoxy]-1′H-spiro[cyclohexane-1,4′-quinazolin]-2′(3′H)-one]"
0.8,48,< 0.15,>245,37,"O=C1Nc2c(Cl)ccc(Oc3ccccc3-c3nnn[nH]3)c2C2(CCCCC2)N1 [Example 17, 8′-chloro-5′-[2-(1H-tetrazol-5-yl)phenoxy]-1′H-spiro[cyclohexane-1,4′-quinazolin]-2′(3′H)-one]"
